Test results published in patent publication US10065984B2, “Polymorphic forms of a steroid-like compound and methods for the preparation and use thereof” (Allergan, Inc., priority 2013, dated 2018).

Tests used:
[1] = Storage stability of crystalline Form 1, XRPD spectrum before and after storage; assay type: physicochemical
Procedure: X-Ray Powder Diffraction patterns were collected on a Bruker D8 diffractometer using Cu Kα radiation (40 kV, 40 mA), θ-2θ goniometer, and divergence of V4 and receiving slits, a Ge monochromator and a Lynxeye detector. Samples were run under ambient conditions as flat plate specimens. The sample was gently packed into a cavity cut into polished, zero-background (510) silicon wafer. The parameters of the data collection are: • Angular range: 2 to 42°2θ • Step size: 0.05°2θ • Collection time: 0.5 s/step
A sample of the steroid-like compound in crystalline Form 1 was stored for 7 days at 40° C. and 75% relative humidity. After that time an XRPD spectrum was obtained and compared to the XRPD spectrum of the sample before the storage at the elevated temperature and humidity. […] Similarly, another sample of the steroid-like compound in crystalline Form 1 was stored for 1 year at room temperature (21° C. and uncontrolled relative humidity).

[2] = Conversion of substantially amorphous material to crystalline Form 1 at elevated temperature and/or humidity; assay type: physicochemical
Excerpt: In certain embodiments, a substantially amorphous form of the steroid-like compound contemplated for use herein can be converted into crystalline Form 1 by subjecting said amorphous material to elevated temperatures and/or elevated humidity sufficient to promote the desired conversion.
As used herein, “substantial portion thereof” refers to the major portion of the sample in question, i.e., greater than 50% of the sample, undergoes conversion from the amorphous form thereof to crystalline Form 1; in some embodiments, greater than 60% of the sample undergoes conversion from the amorphous form thereof to crystalline Form 1; in some embodiments, greater than 70% of the sample undergoes conversion from the amorphous form thereof to crystalline Form 1; in some embodiments, greater than 80% of the sample undergoes conversion from the amorphous form thereof to crystalline Form 1; in some embodiments, greater than 90% of the sample undergoes conversion from the amorphous form thereof to crystalline Form 1.

| Compound | change in the XRPD spectrum after storage ([1]; stored for 1 year at room temperature (21° C. and uncontrolled relative humidity)) | change in the XRPD spectrum after storage ([1]; stored for 7 days at 40° C. and 75% relative humidity) | solid form conversion on exposure ([2]; 75% relative humidity at about 40° C. for about 1 week) | solid form conversion on exposure ([2]; 97% relative humidity at room temperature (about 25° C.) for about 2 weeks) | solid form conversion on exposure ([2]; temperature higher than about 110° C. for at least about 1 hour) |
| --- | --- | --- | --- | --- | --- |
| C[C@]12CCC(=O)C=C1CC[C@@H]1[C@@H]2[C@@H](O)C[C@@]2(C)[C@H]1CC[C@]2(OC(=O)c1ccccc1)C(=O)CO [crystalline Form 1] | no change | No noticeable change | – | – | – |
| C[C@]12CCC(=O)C=C1CC[C@@H]1[C@@H]2[C@@H](O)C[C@@]2(C)[C@H]1CC[C@]2(OC(=O)c1ccccc1)C(=O)CO [substantially amorphous form] | – | – | conversion of a substantial portion thereof to crystalline Form 1 | conversion of a substantial portion thereof to crystalline Form 1 | conversion of a substantial portion thereof to crystalline Form 1 |
